According to DBAASP:
Values after ≈ are worked out from the molar mass of the structure shown. Blank lines part the entries; values can stand above or below the compound they belong to.

Tests used:
Assay in all cases: ≥ marks a high value that may be exact or a test limit, other limits are often not marked, values filed in µg/mL are converted to µM
Staphylococcus aureus = test system: Staphylococcus aureus
Pseudomonas aeruginosa = test system: Pseudomonas aeruginosa
[1] = test system: Staphylococcus aureus BCRC 10780
Streptococcus agalactiae = test system: Streptococcus agalactiae
[2] = test system: Micrococcus luteus BCRC 11034
Vibrio vulnificus 204 = test system: Vibrio vulnificus 204
[3] = test system: Streptococcus pneumoniae BCRC 10794
Vibrio alginolyticus = test system: Vibrio alginolyticus
[4] = test system: Vibrio harveyi BCRC 13812
[5] = test system: Staphylococcus sp. BCRC 10451
[6] = test system: Klebsiella aerogenes ATCC 13048
Escherichia coli DL7 = test system: Escherichia coli DL7
[7] = test system: Staphylococcus epidermidis ATCC 12228
Bacillus subtilis PS832 = test system: Bacillus subtilis PS832
[8] = test system: Enterococcus faecium ATCC 700221
[9] = test system: Candida albicans ATCC 200955
[10] = test system: Escherichia coli ATCC 25922
[11] = test system: Staphylococcus aureus ATCC 33591
[12] = test system: Pseudomonas aeruginosa ATCC 27853
Candida krusei ATCC 6258 = test system: Candida krusei ATCC 6258
[13] = test system: Candida parapsilosis ATCC 22019
[14] = test system: Staphylococcus aureus ATCC 25923
[15] = test system: Cryptococcus neoformans ATCC 90012
[16] = test system: Candida albicans ATCC 90028
[17] = test system: Escherichia coli ATCC 35218
[18] = test system: Staphylococcus aureus ATCC 25325
[19] = test system: Staphylococcus aureus ATCC 25023
[20] = test system: Salmonella enterica subsp. enterica serovar Typhi DMST 22842
Vibrio cholerae non-O139 = test system: Vibrio cholerae non-O139
Vibrio cholerae non-O1 = test system: Vibrio cholerae non-O1
[21] = test system: Cronobacter sakazakii DPC 6440
[22] = test system: Listeria monocytogenes LO28

MIC (Staphylococcus aureus): 4.5 µM (≈ 12.7 µg/mL)
MIC (Pseudomonas aeruginosa): 4.5 µM (≈ 12.7 µg/mL)
MIC [1]: 18 µM (≈ 50.7 µg/mL)
MIC (Streptococcus agalactiae): 18 µM (≈ 50.7 µg/mL)
MIC [2]: 9 µM (≈ 25.4 µg/mL)
MIC (Vibrio vulnificus 204): 18 µM (≈ 50.7 µg/mL)
MIC [3]: 18 µM (≈ 50.7 µg/mL)
MIC (Vibrio alginolyticus): 4.5 µM (≈ 12.7 µg/mL)
MIC [4]: 4.5 µM (≈ 12.7 µg/mL)
MIC [5]: 2.25 µM (≈ 6.34 µg/mL)
SMILES: CC[C@H](C)[C@H](NC(=O)[C@H](CCCCN)NC(=O)[C@@H]1CCCN1C(=O)[C@@H](NC(=O)[C@H](CC(C)C)NC(=O)[C@H](C)NC(=O)[C@H](Cc1ccccc1)NC(=O)[C@H](Cc1ccccc1)NC(=O)CNC(C)=O)[C@@H](C)CC)C(=O)N[C@H](C(=O)N[C@@H](CO)C(=O)N[C@@H](CO)C(=O)N1CCC[C@H]1C(=O)N[C@@H](CC(C)C)C(=O)N[C@@H](Cc1ccccc1)C(=O)N[C@@H](CCCCN)C(=O)N[C@H](C(=O)N[C@@H](CC(C)C)C(=O)N[C@@H](CC(C)C)C(=O)N[C@@H](CO)C(=O)N[C@@H](C)C(=O)N[C@H](C(=O)NCC(=O)N[C@@H](CO)C(=O)N[C@@H](C)C(=O)N[C@@H](CC(C)C)C(=O)N[C@@H](CO)C(N)=O)C(C)C)[C@@H](C)O)[C@@H](C)CC [GFFALIPKIISSPLFKTLLSAVGSALS]

MIC [6]: ≥ 32 µM
MIC (Escherichia coli DL7): 4 µM (≈ 5.62 µg/mL)
MIC [7]: 8 µM (≈ 11.2 µg/mL)
MIC (Bacillus subtilis PS832): 2 µM (≈ 2.81 µg/mL)
SMILES: CC[C@H](C)[C@H](NC(=O)[C@H](CCCN=C(N)N)NC(=O)[C@H](CCCCN)NC(=O)[C@H](CC(C)C)NC(=O)[C@H](CC(C)C)NC(=O)CNC(=O)[C@H](Cc1cnc[nH]1)NC(=O)CNC(=O)CN)C(=O)N[C@@H](CCCCN)C(=O)N[C@H](C(=O)N[C@@H](CC(C)C)C(=O)N[C@@H](CC(C)C)C(N)=O)[C@@H](C)O [GGHGLLKRIKTLL]

MIC [8]: ≥ 56.9 µM
MIC [9]: 28.4 µM (≈ 32.7 µg/mL)
MIC [10]: 25 µM (≈ 28.8 µg/mL)
MIC [11]: ≥ 256 µM
MIC [12]: 28.4 µM (≈ 32.7 µg/mL)
SMILES: CC[C@H](C)[C@H](NC(=O)[C@H](CCCCN)NC(=O)[C@H](CCCCN)NC(=O)[C@H](CC(C)C)NC(=O)[C@H](CC(C)C)NC(=O)CN)C(=O)N[C@@H](CCCCN)C(=O)N[C@@H](CCCCN)C(=O)N[C@@H](CC(C)C)C(=O)N[C@@H](CC(C)C)C(N)=O [GLLKKIKKLL]

MIC (Candida krusei ATCC 6258): 8 µM (≈ 18.3 µg/mL)
MIC [13]: 4 µM (≈ 9.16 µg/mL)
MIC [14]: 1 µM (≈ 2.29 µg/mL)
MIC [10]: 4 µM (≈ 9.16 µg/mL)
MIC [15]: 8 µM (≈ 18.3 µg/mL)
MIC [16]: 8 µM (≈ 18.3 µg/mL)
MIC [12]: 8 µM (≈ 18.3 µg/mL)
SMILES: CC[C@H](C)[C@H](NC(=O)[C@H](Cc1ccccc1)NC(=O)[C@H](CC(N)=O)NC(=O)[C@H](CCCCN)NC(=O)[C@H](C)NC(=O)[C@@H](NC(=O)[C@H](CC(N)=O)NC(=O)[C@H](Cc1ccccc1)NC(=O)[C@H](C)NC(=O)[C@H](C)NC(=O)[C@H](CCCCN)NC(=O)CNC(=O)[C@@H](NC(=O)[C@H](CCCCN)NC(=O)[C@H](CCCCN)NC(=O)[C@H](C)NC(=O)[C@@H](NC(=O)[C@H](CC(=O)O)NC(=O)[C@H](CC(C)C)NC(=O)[C@H](Cc1c[nH]c2ccccc12)NC(=O)CN)C(C)C)[C@@H](C)CC)C(C)C)C(N)=O [GWLDVAKKIGKAAFNVAKNFI]

MIC [17]: 16.1 µM (≈ 24.4 µg/mL)
MIC [18]: 20.2 µM (≈ 30.6 µg/mL)
MIC [12]: 29.5 µM (≈ 44.7 µg/mL)
SMILES: CC(C)C[C@H](NC(=O)[C@H](C)NC(=O)[C@H](C)NC(=O)[C@H](CCCCN)NC(=O)CNC(=O)[C@@H](NC(=O)[C@H](Cc1cnc[nH]1)NC(=O)[C@H](CCCCN)NC(=O)CNC(=O)[C@@H](NC(=O)[C@H](Cc1cnc[nH]1)NC(=O)[C@H](C)NC(=O)[C@H](C)NC(=O)[C@H](CCCCN)NC(=O)[C@@H](N)CCCCN)C(C)C)C(C)C)C(=O)O [KKAAHVGKHVGKAAL]

MIC [19]: 25.6 µM (≈ 32 µg/mL)
SMILES: CC(C)C[C@H](NC(=O)[C@H](CCCN=C(N)N)NC(=O)[C@H](CC(C)C)NC(=O)[C@H](CC(C)C)NC(=O)[C@H](CC(C)C)NC(=O)[C@H](CC(C)C)NC(=O)[C@H](CC(C)C)NC(=O)[C@H](CCCCN)NC(=O)[C@H](CCCN=C(N)N)NC(=O)[C@@H](N)CC(C)C)C(N)=O [LRKLLLLLRL]

MIC [20]: ≥ 46.8 µM
MIC [7]: > 46.8 µM
MIC [14]: > 46.8 µM
SMILES: NC(=O)[C@H](Cc1c[nH]c2ccccc12)NC(=O)[C@H](Cc1c[nH]c2ccccc12)NC(=O)[C@H](Cc1c[nH]c2ccccc12)NC(=O)[C@H](CCCN=C(N)N)NC(=O)[C@H](CCCN=C(N)N)NC(=O)[C@H](Cc1c[nH]c2ccccc12)NC(=O)[C@H](Cc1c[nH]c2ccccc12)NC(=O)[C@H](CCCN=C(N)N)NC(=O)[C@H](Cc1c[nH]c2ccccc12)NC(=O)[C@H](Cc1c[nH]c2ccccc12)NC(=O)[C@@H](N)CCCN=C(N)N [RWWRWWRRWWW]
MIC (Vibrio cholerae non-O139): ≥ 46.8 µM
MIC (Vibrio cholerae non-O1): ≥ 46.8 µM

MIC [21]: ≥ 39.1 µM
MIC [22]: 19.5 µM (≈ 36.6 µg/mL)
SMILES: CC[C@H](C)[C@H](NC(=O)[C@@H](N)Cc1c[nH]c2ccccc12)C(=O)N[C@@H](CCC(N)=O)C(=O)N1CCC[C@H]1C(=O)N[C@@H](CCCCN)C(=O)N[C@H](C(=O)N[C@@H](CCCCN)C(=O)N[C@H](C(=O)N[C@H](C(=O)N1CCC[C@H]1C(=O)N[C@@H](Cc1ccc(O)cc1)C(=O)N[C@@H](C)C(=O)N[C@@H](CCCN=C(N)N)C(=O)N[C@@H](Cc1ccc(O)cc1)C(=O)N[C@@H](CC(C)C)C(=O)O)[C@@H](C)CC)C(C)C)[C@@H](C)O [WIQPKTKVIPYARYL]
